# Reference: patent US8138189B2, “Substituted benzene compounds as modulators of the glucocorticoid receptor” (Hoffman-La Roche Inc., priority 2009, dated 2012)
# Biological target: T1, full length human recombinant glucocorticoid receptor (Homo sapiens, UniProt P04150)
# T1 construct: partially purified full length human recombinant glucocorticoid receptor; purchased Panvera/Invitrogen PV4302
# T1 sequence (P04150 1-777): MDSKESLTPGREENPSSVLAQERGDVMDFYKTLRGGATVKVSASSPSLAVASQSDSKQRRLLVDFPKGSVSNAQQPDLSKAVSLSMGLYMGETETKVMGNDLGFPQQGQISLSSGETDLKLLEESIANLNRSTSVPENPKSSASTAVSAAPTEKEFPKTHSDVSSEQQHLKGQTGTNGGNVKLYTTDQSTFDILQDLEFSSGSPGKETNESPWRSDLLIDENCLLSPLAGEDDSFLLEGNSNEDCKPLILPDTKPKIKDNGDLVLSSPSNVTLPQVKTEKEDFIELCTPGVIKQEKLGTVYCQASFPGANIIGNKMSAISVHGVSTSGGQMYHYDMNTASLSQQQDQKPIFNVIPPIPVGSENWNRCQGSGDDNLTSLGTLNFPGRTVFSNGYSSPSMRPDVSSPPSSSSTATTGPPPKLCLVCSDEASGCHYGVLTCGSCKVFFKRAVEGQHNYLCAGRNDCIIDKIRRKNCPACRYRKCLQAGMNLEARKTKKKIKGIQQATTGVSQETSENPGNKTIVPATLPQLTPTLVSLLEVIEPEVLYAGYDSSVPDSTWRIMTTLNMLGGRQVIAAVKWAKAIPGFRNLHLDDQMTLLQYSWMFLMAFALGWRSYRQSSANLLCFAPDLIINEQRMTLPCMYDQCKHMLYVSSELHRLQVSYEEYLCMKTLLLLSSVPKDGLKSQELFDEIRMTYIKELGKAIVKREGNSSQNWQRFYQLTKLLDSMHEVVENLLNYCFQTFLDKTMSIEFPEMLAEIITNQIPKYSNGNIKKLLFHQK
# Assay: Glucocorticoid Receptor Binding Assay (fluorescence polarization competitor assay, Fluormone GS Far Red tracer)
# Settings: not given
# Description: Glucocorticoid Receptor Binding Assay
# The ability of the substances to bind to the glucocorticoid receptor was determined with the help of a commercial Glucocorticoid Receptor Competitor Assay far red kit provided by Panvera/Invitrogen (PV4302). This kit is used as provided by the supplier. It contains some partially purified full length human recombinant glucocorticoid receptor, a coactivator related GR stabilizing peptide, a tight-binding fluorescent GR ligand Fluormone™ GS Far Red as labeled tracer and a screening buffer. All reagents are prepared and the assay is run according to the recommendations of the kit manufacturer.
# Briefly, the GR stabilizing peptide and the human recombinant glucocorticoid receptor are both diluted with the screening buffer (pH 7.4) and are gently mixed (no vortexing) just before the assay and kept on ice until use. The fluorescent-labeled ligand is also diluted with the screening buffer just before the assay and kept on ice until use. The substances to test are pre-diluted in pure DMSO then some water is added to get an intermediate 4.2% DMSO stock solution. Ten microliter of the intermediate stock solution is gently mixed with 5 μl of diluted fluorescent-labeled ligand and 5 μl of diluted human recombinant glucocorticoid receptor in a 384-well plate (low volume, ultraclear, glass plate from Greiner ref 788896). The plate is centrifuged, sealed and incubated for 3 hours at 22° C. in the dark. The polarized fluorescence is measured with a Zeiss-HTS reader or any equivalent equipment (610-660 nm).
# All compounds were tested to determine IC50 in a serial dilution experiment. The concentration at which 50% inhibition of the fluorescent GR ligand Fluormone™ GS Far Red is obtained (the IC50) is determined after fitting with a sigmoidal dose-response model of a plot of the logarithm of the concentration versus percent inhibition measured for the different concentrations. Ki's were calculated from IC50 based on Cheng-Prusoff equation (Cheng, Y, Prusoff, W H (1973) Biochem Pharmacol 22, 3099-3108): Ki=IC50/[1+D/Kd] wherein D is the concentration of the fluorescent ligand and Kd is the binding constant for the fluorescent ligand binding to the receptor under the conditions used in the competition experiment.
row,Compound,Ki
1,"COC(=O)c1ccc(Oc2ccc([C@H](C)[C@](O)(c3cc(C)c(=O)n(C)c3)C(F)(F)F)c(Cl)c2)nc1 (relative stereo) [Example 217, 6-{3-Chloro-4-[2-(1,5-dimethyl-6-oxo-1,6-dihydro-pyridin-3-yl)-3,3,3-trifluoro-2-hydroxy-1-methyl-propyl]-phenoxy}-nicotinic acid methyl ester]",2.9 nM
2,"C[C@H](c1ccc(-c2ccc(F)c(C(=O)O)c2)cc1Cl)[C@@](O)(c1cnc2ccccc2c1)C(F)(F)F (relative stereo) [Example 226, 3′-Chloro-4-fluoro-4′-(3,3,3-trifluoro-2-hydroxy-1-methyl-2-quinolin-3-yl-propyl)-biphenyl-3-carboxylic acid]",24.4 nM
3,"C[C@H](c1ccc(Oc2ncc(C(=O)O)cc2Cl)cc1Cl)[C@@](O)(c1ccc2nccnc2c1)C(F)(F)F (relative stereo) [Example 227, 5-Chloro-6-[3-chloro-4-(3,3,3-trifluoro-2-hydroxy-1-methyl-2-quinoxalin-6-yl-propyl)-phenoxy]-nicotinic acid]",14.3 nM
4,"Cc1cc([C@](O)([C@H](C)c2ccc(-c3ccc(C(=O)O)c(F)c3)cc2Cl)C(F)(F)F)sc1C#N (relative stereo) [Example 229, 3′-Chloro-4′-[2-(5-cyano-4-methyl-thiophen-2-yl)-3,3,3-trifluoro-2-hydroxy-1-methyl-propyl]-3-fluoro-biphenyl-4-carboxylic acid]",11.2 nM
5,"Cc1cc([C@](O)([C@H](C)c2ccc(Oc3ncc(C(=O)O)cc3Cl)cc2Cl)C(F)(F)F)cnc1C#N (relative stereo) [Example 231, 5-Chloro-6-{3-chloro-4-[2-(6-cyano-5-methyl-pyridin-3-yl)-3,3,3-trifluoro-2-hydroxy-1-methyl-propyl]-phenoxy}-nicotinic acid]",1.7 nM
6,"COC(=O)c1cnc(Oc2ccc([C@@H](C)[C@@](O)(c3ccc(=O)n(C)c3)C(F)(F)F)c(Cl)c2Cl)cn1 (relative stereo) [Example 237, 5-{2,3-Dichloro-4-[3,3,3-trifluoro-2-hydroxy-1-methyl-2-(1-methyl-6-oxo-1,6-dihydro-pyridin-3-yl)-propyl]-phenoxy}-pyrazine-2-carboxylic acid methyl ester]",24.3 nM
7,"CCOC(=O)C(C)(C)Oc1ccc([C@H](C)[C@](O)(c2ccc(=O)n(C)c2)C(F)(F)F)c(Cl)c1Cl (relative stereo) [Example 239, 2-{2,3-Dichloro-4-[3,3,3-trifluoro-2-hydroxy-1-methyl-2-(1-methyl-6-oxo-1,6-dihydro-pyridin-3-yl)-propyl]-phenoxy}-2-methyl-propionic acid ethyl ester]",14.5 nM
8,"Cc1cc(C(=O)O)cnc1Oc1ccc([C@H](C)[C@](O)(c2cc(C)c(=O)n(C)c2)C(F)(F)F)c(Cl)c1 (relative stereo) [Example 252, 6-{3-Chloro-4-[2-(1,5-dimethyl-6-oxo-1,6-dihydro-pyridin-3-yl)-3,3,3-trifluoro-2-hydroxy-1-methyl-propyl]-phenoxy}-5-methyl-nicotinic acid]",1.1 nM
9,"COC(=O)c1cnc(Oc2ccc([C@H](C)[C@](O)(c3cc(C)c(=O)n(C)c3)C(F)(F)F)c(Cl)c2)nc1 (relative stereo) [Example 253, 2-{3-Chloro-4-[2-(1,5-dimethyl-6-oxo-1,6-dihydro-pyridin-3-yl)-3,3,3-trifluoro-2-hydroxy-1-methyl-propyl]-phenoxy}-pyrimidine-5-carboxylic acid methyl ester]",1.5 nM
10,"Cc1cc([C@@](O)([C@@H](C)c2ccc(Oc3ccc(C(=O)O)cc3C(F)(F)F)cc2Cl)C(F)(F)F)cn(C)c1=O (single isomer, unassigned) [Example 219, 4-{3-Chloro-4-[2-(1,5-dimethyl-6-oxo-1,6-dihydro-pyridin-3-yl)-3,3,3-trifluoro-2-hydroxy-1-methyl-propyl]-phenoxy}-3-trifluoromethyl-benzoic acid]",1.7 nM
11,"CCOC(=O)c1ccc(COc2ccc([C@@H](C)[C@@](O)(c3cnc(C)cn3)C(F)(F)F)c(Cl)c2)cc1 (stereo in doubt) [Example 7, 4-{3-Chloro-4-[(1R,2R)-3,3,3-trifluoro-2-hydroxy-1-methyl-2-(5-methyl-pyrazin-2-yl)-propyl]-phenoxymethyl}-benzoic acid ethyl ester]",38.1 nM
12,"Cc1cnc([C@](O)([C@H](C)c2ccc(OCc3ccc(CC(=O)O)cc3)cc2Cl)C(F)(F)F)cn1 (stereo in doubt) [Example 12, (4-{3-Chloro-4-[3,3,3-trifluoro-2-hydroxy-1-methyl-2-(5-methyl-pyrazin-2-yl)-propyl]-phenoxymethyl}-phenyl)-acetic acid]",33.5 nM
13,"COC(=O)c1ccc(COc2ccc([C@@H](C)[C@@](O)(c3cnc(C)cn3)C(F)(F)F)c(Cl)c2)c(Cl)c1 (stereo in doubt) [Example 13, 3-Chloro-4-{3-chloro-4-[3,3,3-trifluoro-2-hydroxy-1-methyl-2-(5-methyl-pyrazin-2-yl)-propyl]-phenoxymethyl}-benzoic acid methyl ester]",11.8 nM
14,"Cc1cnc([C@](O)([C@H](C)c2ccc(OCc3ccc(C(=O)O)cc3Cl)cc2Cl)C(F)(F)F)cn1 (stereo in doubt) [Example 14, 3-Chloro-4-{3-chloro-4-[3,3,3-trifluoro-2-hydroxy-1-methyl-2-(5-methyl-pyrazin-2-yl)-propyl]-phenoxymethyl}-benzoic acid]",2.8 nM
15,"COc1cc(C(=O)O)ccc1COc1ccc([C@@H](C)[C@@](O)(c2cnc(C)cn2)C(F)(F)F)c(Cl)c1 (stereo in doubt) [Example 16, 4-{3-Chloro-4-[3,3,3-trifluoro-2-hydroxy-1-methyl-2-(5-methyl-pyrazin-2-yl)-propyl]-phenoxymethyl}-3-methoxy-benzoic acid]",72.3 nM
16,"COC(=O)C(C)c1ccc(COc2ccc([C@@H](C)[C@@](O)(c3cnc(C)cn3)C(F)(F)F)c(Cl)c2)cc1 (stereo in doubt) [Example 17, 2-(4-{3-Chloro-4-[3,3,3-trifluoro-2-hydroxy-1-methyl-2-(5-methyl-pyrazin-2-yl)-propyl]-phenoxymethyl}-phenyl)-propionic acid methyl ester]",33.9 nM
17,"Cc1cnc([C@](O)([C@H](C)c2ccc(OCc3ccc(C(C)C(=O)O)cc3)cc2Cl)C(F)(F)F)cn1 (stereo in doubt) [Example 18, 2-(4-{3-Chloro-4-[3,3,3-trifluoro-2-hydroxy-1-methyl-2-(5-methyl-pyrazin-2-yl)-propyl]-phenoxymethyl}-phenyl)-propionic acid]",110 nM
18,"CCOC(=O)c1ccc(COc2ccc([C@@H](C)[C@@](O)(c3ccnc(Cl)c3)C(F)(F)F)c(Cl)c2)cc1 (stereo in doubt) [Example 19, 4-{3-Chloro-4-[2-(2-chloro-pyridin-4-yl)-3,3,3-trifluoro-2-hydroxy-1-methyl-propyl]-phenoxymethyl}-benzoic acid ethyl ester]",45.9 nM

# Same assay, conditions: Ki calculated from IC50 by Cheng-Prusoff; 3 hours at 22° C., pH 7.4
row,Compound,Ki
1,"Cc1cc([C@@](O)([C@@H](C)c2ccc(Oc3ccc(C(=O)O)cc3C(F)(F)F)cc2Cl)C(F)(F)F)cn(C)c1=O (single isomer, unassigned) [Example 241, 4-{3-Chloro-4-[2-(1,5-dimethyl-6-oxo-1,6-dihydro-pyridin-3-yl)-3,3,3-trifluoro-2-hydroxy-1-methyl-propyl]-phenoxy}-3-trifluoromethyl-benzoic acid]",1.7 nM
